We go through 22 compounds from US20090131431A1, “Pyrazolo[3,4-b]pyridine compounds, and their use as a PDE4 inhibitors” (priority 2005, published 2009).

The target of the assay is T1, PDE4B (human recombinant) (Homo sapiens, UniProt Q07343).
T1 construct: made in house
As to the kind of experiment: Inhibition of PDE4B activity: SPA and/or Fluorescence Polarisation (FP) assay. The assay is classed as biochemical. The conditions noted are these: one reading (n=1) or average of 2 or more readings, read-out: PDE4B pIC50 (±about 0.5) (converted). The gist of the method: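 Human recombinant PDE4B activity measured by SPA with [3H]cAMP at about 10 nM, 1 h at ambient temperature, enzyme set for ≤20% substrate hydrolysis, or by IMAP FP with Fl-cAMP at about 40 nM, 40 min at ambient temperature under linear conditions. Inhibition curves fitted; values reported as pIC50.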

Structures can show the parent of a compound that is named as a salt.

T1 sequence (Q07343 1-564 isoform Q07343-2): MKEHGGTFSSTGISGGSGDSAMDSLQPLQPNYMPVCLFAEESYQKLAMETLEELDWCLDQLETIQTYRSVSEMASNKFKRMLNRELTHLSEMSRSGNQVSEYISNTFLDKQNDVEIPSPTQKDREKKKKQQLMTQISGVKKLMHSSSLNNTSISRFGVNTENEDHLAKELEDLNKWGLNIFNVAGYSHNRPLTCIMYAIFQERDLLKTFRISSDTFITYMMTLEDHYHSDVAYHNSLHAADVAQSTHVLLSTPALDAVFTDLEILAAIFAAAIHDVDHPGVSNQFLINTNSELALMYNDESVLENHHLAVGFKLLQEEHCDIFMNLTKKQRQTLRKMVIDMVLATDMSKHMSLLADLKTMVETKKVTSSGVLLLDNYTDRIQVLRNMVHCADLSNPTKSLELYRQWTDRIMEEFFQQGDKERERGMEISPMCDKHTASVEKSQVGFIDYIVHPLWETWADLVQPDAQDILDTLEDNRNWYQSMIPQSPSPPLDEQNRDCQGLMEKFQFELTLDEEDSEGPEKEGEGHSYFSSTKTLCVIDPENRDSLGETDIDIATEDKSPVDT

Regarding `CCc1nc2c(cnn2CC)c(NC2CCN(C(N)=O)CC2)c1CNC(=O)c1ccc(C(C)(C)C)cc1` [Example 243, 4-({5-[({[4-(1-dimethylethyl)phenyl]carbonyl}amino)methyl]-1,6-diethyl-1H-pyrazolo[3,4-b]pyridin-4-yl}amino)-1-piperidinecarboxamide], the IC50 is 0.01 to 0.1 nM.

In the case of `CCc1nc2c(cnn2CC)c(NC2CCOCC2)c1CNC(=O)c1ccccc1F` [Example 232, N-{[1,6-diethyl-4-(tetrahydro-2H-pyran-4-ylamino)-1H-pyrazolo[3,4-b]pyridin-5-yl]methyl}-2-fluorobenzamide], the IC50 is 0.01 to 0.1 nM. Consider `CCn1ncc2c(NC3CCOCC3)c(CNC(=O)c3ccco3)c(C)nc21` [Example 218, N-{[1-ethyl-6-methyl-4-(tetrahydro-2H-pyran-4-ylamino)-1H-pyrazolo[3,4-b]pyridin-5-yl]methyl}-2-furancarboxamide], for which the IC50 is 0.126 to 1 nM. `CCn1ncc2c(NC3CCOCC3)c(CNC(=O)c3cc(C)on3)c(C)nc21` [Example 225, N-{[1-ethyl-6-methyl-4-(tetrahydro-2H-pyran-4-ylamino)-1H-pyrazolo[3,4-b]pyridin-5-yl]methyl}-5-methyl-3-isoxazolecarboxamide]: the IC50 was 0.126 to 1 nM. The figure for `CCn1ncc2c(NC3CCN(C(N)=O)CC3)c(CNC(=O)c3ccccc3F)c(C)nc21` [Example 266, 4-{[1-ethyl-5-({[(2-fluorophenyl)carbonyl]amino}methyl)-6-methyl-1H-pyrazolo[3,4-b]pyridin-4-yl]amino}-1-piperidinecarboxamide] is 0.126 to 1 nM; for `CCc1nc2c(cnn2CC)c(NC2CCOCC2)c1CNC(=O)c1cnc(C)cn1` [Example 236, N-{[1,6-diethyl-4-(tetrahydro-2H-pyran-4-ylamino)-1H-pyrazolo[3,4-b]pyridin-5-yl]methyl}-5-methyl-2-pyrazinecarboxamide] it is 0.01 to 0.1 nM. Then `CCc1nc2c(cnn2CC)c(NC2CCOCC2)c1CNC(=O)c1cccc(N2CCOCC2)c1` [Example 190, N-{[1,6-diethyl-4-(tetrahydro-2H-pyran-4-ylamino)-1H-pyrazolo[3,4-b]pyridin-5-yl]methyl}-3-(4-morpholinyl)benzamide], with 0.01 to 0.1 nM; and `CCc1nc2c(cnn2CC)c(NC2CCOCC2)c1CNC(=O)c1cncs1` [Example 234, N-{[1,6-diethyl-4-(tetrahydro-2H-pyran-4-ylamino)-1H-pyrazolo[3,4-b]pyridin-5-yl]methyl}-1,3-thiazole-5-carboxamide], with 0.126 to 1 nM. For the compound `CCc1nc2c(cnn2CC)c(NC2CCOCC2)c1CNC(=O)c1ccoc1C` [Example 195, N-{[1,6-diethyl-4-(tetrahydro-2H-pyran-4-ylamino)-1H-pyrazolo[3,4-b]pyridin-5-yl]methyl}-2-methyl-3-furancarboxamide], the IC50 is 0.126 to 1 nM. As for `CCc1nc2c(cnn2CC)c(NC2CCOCC2)c1CNC(=O)c1cc(S(=O)(=O)NC2CCC2)ccc1OC` [Example 186, 5-[(cyclobutylamino)sulfonyl]-N-{[1,6-diethyl-4-(tetrahydro-2H-pyran-4-ylamino)-1H-pyrazolo[3,4-b]pyridin-5-yl]methyl}-2-(methyloxy)benzamide], the IC50 was 0.01 to 0.1 nM. Turning to `CCc1nc2c(cnn2CC)c(NC2CCOCC2)c1CNC(=O)c1ccco1` [Example 153, N-{[1,6-diethyl-4-(tetrahydro-2H-pyran-4-ylamino)-1H-pyrazolo[3,4-b]pyridin-5-yl]methyl}-2-furancarboxamide], the IC50 was 0.01 to 0.1 nM. `CCc1nc2c(cnn2CC)c(NC2CCOCC2)c1CNC(=O)c1ccc(C(C)C)cc1` [Example 193, N-{[1,6-diethyl-4-(tetrahydro-2H-pyran-4-ylamino)-1H-pyrazolo[3,4-b]pyridin-5-yl]methyl}-4-(1-methylethyl)benzamide]: the IC50 is 0.01 to 0.1 nM.

For the compound `CCc1nc2c(cnn2CC)c(NC2CCOCC2)c1CNC(=O)c1cccc2ccccc12` [Example 192, N-{[1,6-diethyl-4-(tetrahydro-2H-pyran-4-ylamino)-1H-pyrazolo[3,4-b]pyridin-5-yl]methyl}-1-naphthalenecarboxamide], the IC50 was 0.126 to 1 nM. Regarding `CCn1ncc2c(NC3CCOCC3)c(CNC(=O)c3ccc(C)cc3O)c(C)nc21` [Example 281, N-{[1-ethyl-6-methyl-4-(tetrahydro-2H-pyran-4-ylamino)-1H-pyrazolo[3,4-b]pyridin-5-yl]methyl}-2-hydroxy-4-methylbenzamide], the IC50 is 0.01 to 0.1 nM. The figure for `CCc1nc2c(cnn2CC)c(NC2CCOCC2)c1CNC(=O)c1cccc2c1OCC2` [Example 161, N-{[1,6-diethyl-4-(tetrahydro-2H-pyran-4-ylamino)-1H-pyrazolo[3,4-b]pyridin-5-yl]methyl}-2,3-dihydro-1-benzofuran-7-carboxamide] is 0.01 to 0.1 nM; for `CCn1ncc2c(NC3CCOCC3)c(CNC(=O)c3cnc(C)s3)c(C(F)(F)F)nc21` [Example 349, N-{[1-Ethyl-4-(tetrahydro-2H-pyran-4-ylamino)-6-(trifluoromethyl)-1H-pyrazolo[3,4-b]pyridin-5-yl]methyl}-2-methyl-1,3-thiazole-5-carboxamide] it is 0.126 to 1 nM; for `CCc1nc2c(cnn2CC)c(NC2CCOCC2)c1CNC(=O)c1oc(C)nc1C` [Example 335, N-{[1,6-diethyl-4-(tetrahydro-2H-pyran-4-ylamino)-1H-pyrazolo[3,4-b]pyridin-5-yl]methyl}-2,4-dimethyl-1,3-oxazole-5-carboxamide formate] it is 0.126 to 1 nM.

Consider `CCn1ncc2c(NC3CCOCC3)c(CNC(=O)c3ccccc3F)c(C)nc21` [Example 282, N-{[1-ethyl-6-methyl-4-(tetrahydro-2H-pyran-4-ylamino)-1H-pyrazolo[3,4-b]pyridin-5-yl]methyl}-2-fluorobenzamide], for which the IC50 is 0.126 to 1 nM. In the case of `CCn1ncc2c(NC3CCN(C(N)=O)CC3)c(CNC(=O)c3ccc(N4CCOCC4)cc3)c(C)nc21` [Example 303, 4-({1-ethyl-6-methyl-5-[({[4-(4-morpholinyl)phenyl]-carbonyl}amino)methyl]-1H-pyrazolo[3,4-b]pyridin-4-yl}amino)-1-piperidine-carboxamide, Formate Salt], the IC50 was 0.01 to 0.1 nM. Turning to `CCn1ncc2c(NC3CCOCC3)c(CNC(=O)c3ccc(C(C)(C)C)cc3)c(C)nc21` [Example 277, 4-(1,1-dimethylethyl)-N-{[1-ethyl-6-methyl-4-(tetrahydro-2H-pyran-4-ylamino)-1H-pyrazolo[3,4-b]pyridin-5-yl]methyl}benzamide], the IC50 was 0.01 to 0.1 nM.

Take `CCc1nc2c(cnn2CC)c(NC2CCN(C(N)=O)CC2)c1CNC(=O)c1ccc(NC(C)=O)c2c1OCC2` [Example 304, 4-({5-[({[4-(acetylamino)-2,3-dihydro-1-benzofuran-7-yl]carbonyl}amino)methyl]-1,6-diethyl-1H-pyrazolo[3,4-b]pyridin-4-yl}amino)-1-piperidinecarboxamide]: the IC50 is 0.01 to 0.1 nM.

`CCc1nc2c(cnn2CC)c(NC2CCOCC2)c1CNC(=O)c1ccoc1` [Example 154, N-{[1,6-diethyl-4-(tetrahydro-2H-pyran-4-ylamino)-1H-pyrazolo[3,4-b]pyridin-5-yl]methyl}-3-furancarboxamide]: the IC50 was 0.126 to 1 nM.
